The target in one experiment is T1, Histone deacetylase 6 (Homo sapiens, UniProt Q9UBN7).
T1 sequence (Q9UBN7 whole entry): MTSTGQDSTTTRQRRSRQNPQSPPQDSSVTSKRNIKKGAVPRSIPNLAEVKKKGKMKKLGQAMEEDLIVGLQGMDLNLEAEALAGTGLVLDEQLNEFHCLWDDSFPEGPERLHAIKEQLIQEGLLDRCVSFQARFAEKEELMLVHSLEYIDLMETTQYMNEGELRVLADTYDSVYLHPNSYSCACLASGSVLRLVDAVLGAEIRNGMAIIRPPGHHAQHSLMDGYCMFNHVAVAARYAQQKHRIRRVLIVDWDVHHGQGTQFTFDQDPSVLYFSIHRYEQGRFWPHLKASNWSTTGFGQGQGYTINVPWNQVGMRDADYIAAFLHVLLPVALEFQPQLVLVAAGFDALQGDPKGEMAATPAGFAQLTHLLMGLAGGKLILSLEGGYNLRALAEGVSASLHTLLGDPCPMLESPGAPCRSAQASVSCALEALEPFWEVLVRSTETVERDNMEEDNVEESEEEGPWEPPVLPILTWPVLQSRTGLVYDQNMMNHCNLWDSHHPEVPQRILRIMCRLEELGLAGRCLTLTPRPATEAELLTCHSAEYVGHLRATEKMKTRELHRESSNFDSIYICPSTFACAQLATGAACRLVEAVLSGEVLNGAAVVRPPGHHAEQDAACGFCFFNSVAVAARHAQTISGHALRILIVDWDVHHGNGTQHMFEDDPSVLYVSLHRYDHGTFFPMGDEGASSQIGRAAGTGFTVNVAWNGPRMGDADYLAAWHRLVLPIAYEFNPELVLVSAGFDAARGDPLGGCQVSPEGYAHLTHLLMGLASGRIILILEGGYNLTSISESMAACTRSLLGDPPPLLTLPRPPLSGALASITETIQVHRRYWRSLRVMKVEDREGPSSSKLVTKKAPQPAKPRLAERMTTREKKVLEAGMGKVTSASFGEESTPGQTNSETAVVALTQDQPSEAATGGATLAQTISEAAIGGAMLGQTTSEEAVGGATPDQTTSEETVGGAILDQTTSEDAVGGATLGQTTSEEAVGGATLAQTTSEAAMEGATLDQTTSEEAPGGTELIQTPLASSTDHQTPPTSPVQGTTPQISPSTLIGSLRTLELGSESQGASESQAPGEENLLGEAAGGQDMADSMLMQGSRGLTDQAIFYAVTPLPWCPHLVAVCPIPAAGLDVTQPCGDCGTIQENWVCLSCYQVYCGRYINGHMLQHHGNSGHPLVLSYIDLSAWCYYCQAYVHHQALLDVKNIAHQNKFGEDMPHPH
As to the kind of experiment: Inhibition of HDAC Enzyme Activity (In Vitro). How it is done: (§1) In the HDAC1 assay, the test substance was treated at concentrations of 100, 1000, and 10000 nM, and in the HDAC6 assay, the test substance was treated at concentrations of 0.1, 1, 10, 100, and 1000 nM.

The next experiment has as its target Histone deacetylase 1 (Homo sapiens, UniProt Q13547). Put plainly: Inhibition of HDAC Enzyme Activity (In Vitro). How it is done:
as §1

Chain of Histone deacetylase 1 (Q13547 whole entry): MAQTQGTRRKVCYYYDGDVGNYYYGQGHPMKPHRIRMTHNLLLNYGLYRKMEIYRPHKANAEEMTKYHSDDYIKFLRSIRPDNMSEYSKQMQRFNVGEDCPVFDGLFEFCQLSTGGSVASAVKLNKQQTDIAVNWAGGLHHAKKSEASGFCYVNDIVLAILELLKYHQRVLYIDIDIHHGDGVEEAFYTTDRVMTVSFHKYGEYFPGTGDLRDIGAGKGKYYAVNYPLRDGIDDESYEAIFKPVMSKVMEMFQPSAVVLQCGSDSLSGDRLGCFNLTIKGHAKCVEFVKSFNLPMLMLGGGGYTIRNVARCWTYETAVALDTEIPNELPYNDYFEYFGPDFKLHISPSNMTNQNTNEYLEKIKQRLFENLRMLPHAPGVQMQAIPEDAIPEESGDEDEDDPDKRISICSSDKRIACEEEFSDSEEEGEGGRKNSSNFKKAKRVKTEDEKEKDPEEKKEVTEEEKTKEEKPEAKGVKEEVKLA

`CN1CCN(c2c(N(Cc3ccc(-c4nnc(C(F)F)o4)cc3F)c3cc(F)cc(-c4ccncc4)c3)c(=O)c2=O)CC1` [US20260028321, Compound 9]: the IC50 against Histone deacetylase 6 was 54 nM; at Histone deacetylase 1, greater than 10000 nM.

Source of the values: BindingDB's records for patent US20260028321 (Chong Kun Dang Pharmaceutical, 2026).
